The values below come from patent US20260193264A1, “BENZOYPARAZINE PYRAZINES AND THEIR USES” (FOGHORN THERAPEUTICS INC., priority 2022, published 2026).

Structures are written as SMILES.

In test [1] the target is T1, HiBit-BRG1 fusion protein in stable HeLa cell line expressing HiBit-BRG1 and LgBit (Homo sapiens, UniProt P51532).
T1 construct: expressed in transfected cells
Briefly: HiBiT-BRG1 cell-based degradation assay (Nano-Glo HiBiT, 24 h). The conditions noted are these: HeLa HiBit-BRG1/LgBit cells; for DC50: read-out: BRMG1 HiBit Degradation IC50; for Dmax: top dose 30 μM, read-out: BRG1 HiBit Degradation Maximum (%). The method in brief:
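Degradation calculated from NanoBiT luminescence relative to DMSO-treated cells (high) and cells given 2 μM known BRM/BRG1 degrader (low). HeLa cells stably expressing HiBiT-BRG1 plus LgBiT were exposed to compound for 24 h before lytic HiBiT detection.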
For orientation: With HiBiT, luminescence reflects the tagged protein that the partner subunit can reach.

Test [2] deals with T2, HiBiT-BRM fusion protein in stable HeLa cell line (Homo sapiens, UniProt P51531).
T2 construct: expressed in transfected cells
The test is described as follows: HiBiT-BRM cell-based degradation assay (Nano-Glo HiBiT Lytic Detection, 24 h). More on the design: DC50: scale not given here. The settings on record: HeLa HiBiT-BRM cells; for DC50: read-out: BRM HiBit Degradation IC50; for BRM HiBit Degradation Maximum (%): top dose 30 μM. The method in brief:
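Percent degradation was scaled between DMSO-treated cells and cells given 2 μM of a known BRM/BRG1 degrader. Readout was NanoBiT luminescence after lytic detection. HeLa cells stably expressing HiBiT-BRM were dosed for 24 h, 10 points, 3-fold steps from 30 μM final, in duplicate.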

T2 sequence (P51531 whole entry, the tested form may be a part): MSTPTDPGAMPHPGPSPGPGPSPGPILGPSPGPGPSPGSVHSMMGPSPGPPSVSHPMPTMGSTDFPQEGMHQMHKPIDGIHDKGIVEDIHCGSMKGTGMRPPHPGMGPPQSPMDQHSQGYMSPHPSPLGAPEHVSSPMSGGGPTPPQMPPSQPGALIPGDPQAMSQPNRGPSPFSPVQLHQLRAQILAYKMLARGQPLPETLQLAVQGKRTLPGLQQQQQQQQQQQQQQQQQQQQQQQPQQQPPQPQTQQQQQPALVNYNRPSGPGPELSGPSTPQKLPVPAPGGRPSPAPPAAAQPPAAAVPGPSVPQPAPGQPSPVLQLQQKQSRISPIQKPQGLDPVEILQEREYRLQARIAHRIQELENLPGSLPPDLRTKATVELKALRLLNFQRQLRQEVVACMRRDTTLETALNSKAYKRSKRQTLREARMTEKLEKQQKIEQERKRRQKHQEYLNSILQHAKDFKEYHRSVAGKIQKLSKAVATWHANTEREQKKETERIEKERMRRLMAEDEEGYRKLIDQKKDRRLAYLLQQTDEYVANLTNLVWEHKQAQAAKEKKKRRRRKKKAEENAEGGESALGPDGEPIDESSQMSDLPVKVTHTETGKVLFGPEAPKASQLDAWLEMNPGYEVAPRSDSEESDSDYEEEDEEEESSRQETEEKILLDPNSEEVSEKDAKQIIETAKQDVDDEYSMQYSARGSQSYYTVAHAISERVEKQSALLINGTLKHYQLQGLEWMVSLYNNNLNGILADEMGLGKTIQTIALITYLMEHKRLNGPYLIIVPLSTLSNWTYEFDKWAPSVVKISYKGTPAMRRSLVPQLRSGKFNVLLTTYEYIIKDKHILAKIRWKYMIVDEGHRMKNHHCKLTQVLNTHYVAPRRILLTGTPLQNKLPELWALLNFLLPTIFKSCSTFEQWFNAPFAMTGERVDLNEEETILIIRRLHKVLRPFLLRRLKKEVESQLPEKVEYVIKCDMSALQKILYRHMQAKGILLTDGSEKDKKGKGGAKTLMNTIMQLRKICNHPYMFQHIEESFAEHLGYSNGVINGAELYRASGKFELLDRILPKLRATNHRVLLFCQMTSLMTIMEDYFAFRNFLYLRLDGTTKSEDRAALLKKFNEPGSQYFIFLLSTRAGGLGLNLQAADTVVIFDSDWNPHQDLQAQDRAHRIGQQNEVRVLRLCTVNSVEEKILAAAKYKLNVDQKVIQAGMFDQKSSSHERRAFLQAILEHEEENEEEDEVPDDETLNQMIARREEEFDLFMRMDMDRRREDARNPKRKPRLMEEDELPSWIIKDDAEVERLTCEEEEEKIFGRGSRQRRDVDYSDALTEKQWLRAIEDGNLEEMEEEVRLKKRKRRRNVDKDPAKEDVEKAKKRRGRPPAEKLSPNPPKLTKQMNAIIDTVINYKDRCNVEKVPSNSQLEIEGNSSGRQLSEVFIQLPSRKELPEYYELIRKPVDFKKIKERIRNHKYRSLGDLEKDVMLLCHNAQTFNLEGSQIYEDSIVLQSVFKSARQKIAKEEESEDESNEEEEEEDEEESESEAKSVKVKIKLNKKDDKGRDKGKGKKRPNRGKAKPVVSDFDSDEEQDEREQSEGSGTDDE
T1 sequence (P51532 whole entry, the tested form may be a part): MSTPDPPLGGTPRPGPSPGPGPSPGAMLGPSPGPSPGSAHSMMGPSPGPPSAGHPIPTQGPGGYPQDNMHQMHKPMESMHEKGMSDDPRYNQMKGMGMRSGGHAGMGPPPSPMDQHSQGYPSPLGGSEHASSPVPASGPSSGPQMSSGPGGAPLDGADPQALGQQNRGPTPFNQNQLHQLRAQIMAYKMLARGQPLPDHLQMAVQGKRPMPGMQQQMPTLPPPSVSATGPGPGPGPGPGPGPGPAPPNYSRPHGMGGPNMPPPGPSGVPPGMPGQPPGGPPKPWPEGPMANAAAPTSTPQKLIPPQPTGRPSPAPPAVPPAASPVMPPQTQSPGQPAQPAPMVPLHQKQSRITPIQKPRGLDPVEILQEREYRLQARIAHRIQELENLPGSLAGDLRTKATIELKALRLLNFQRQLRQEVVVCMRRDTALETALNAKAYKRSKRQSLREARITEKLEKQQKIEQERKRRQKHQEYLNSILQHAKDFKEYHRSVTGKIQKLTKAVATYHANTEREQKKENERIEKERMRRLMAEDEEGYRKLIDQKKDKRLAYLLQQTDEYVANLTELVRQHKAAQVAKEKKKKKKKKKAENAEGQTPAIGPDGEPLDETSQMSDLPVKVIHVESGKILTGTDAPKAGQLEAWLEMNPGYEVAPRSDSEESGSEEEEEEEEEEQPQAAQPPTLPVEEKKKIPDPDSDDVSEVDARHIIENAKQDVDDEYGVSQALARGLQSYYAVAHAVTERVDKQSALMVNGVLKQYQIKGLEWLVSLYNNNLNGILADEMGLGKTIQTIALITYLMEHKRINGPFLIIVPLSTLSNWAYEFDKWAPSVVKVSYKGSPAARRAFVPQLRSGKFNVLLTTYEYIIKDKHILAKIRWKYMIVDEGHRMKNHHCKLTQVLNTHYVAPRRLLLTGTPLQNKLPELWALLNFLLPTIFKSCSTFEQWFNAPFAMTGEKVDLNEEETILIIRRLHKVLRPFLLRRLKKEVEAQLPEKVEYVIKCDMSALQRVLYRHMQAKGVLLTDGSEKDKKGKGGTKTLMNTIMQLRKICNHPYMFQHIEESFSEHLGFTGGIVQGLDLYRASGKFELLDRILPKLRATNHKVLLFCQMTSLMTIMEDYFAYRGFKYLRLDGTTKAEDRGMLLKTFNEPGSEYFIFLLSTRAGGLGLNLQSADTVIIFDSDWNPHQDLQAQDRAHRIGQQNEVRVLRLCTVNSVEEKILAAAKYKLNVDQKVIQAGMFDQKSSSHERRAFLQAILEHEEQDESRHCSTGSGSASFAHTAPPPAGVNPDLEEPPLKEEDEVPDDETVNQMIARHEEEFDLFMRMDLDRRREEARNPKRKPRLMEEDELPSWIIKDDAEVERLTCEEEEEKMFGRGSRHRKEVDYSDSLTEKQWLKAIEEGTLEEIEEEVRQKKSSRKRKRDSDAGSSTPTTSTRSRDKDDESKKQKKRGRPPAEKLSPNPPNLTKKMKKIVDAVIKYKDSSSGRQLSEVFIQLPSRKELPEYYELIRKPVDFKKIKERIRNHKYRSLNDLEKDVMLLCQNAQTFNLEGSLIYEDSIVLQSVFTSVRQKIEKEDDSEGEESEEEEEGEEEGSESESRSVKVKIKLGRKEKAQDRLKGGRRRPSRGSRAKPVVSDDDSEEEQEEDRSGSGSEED

As to `Cc1ncsc1-c1ccc([C@H](C)NC(=O)[C@@H]2C[C@@H](O)CN2C(=O)C(C(C)C)n2cc(N3CCC(C4CCN(c5ccc6cc(-c7ccccc7O)nnc6c5)CC4)C3)nn2)cc1` (stereo partly drawn) [Compound 266, (2S,4R)-4-hydroxy-1-(2-(4-(3-(1-(3-(2-hydroxyphenyl)cinnolin-7-yl)piperidin-4-yl)pyrrolidin-1-yl)-1H-1,2,3-triazol-1-yl)-3-methylbutanoyl)-N-((S)-1-(4-(4-methylthiazol-5-yl)phenyl)ethyl)pyrrolidine-2-carboxamide], in test [1], the DC50 was less than 10 nM and the Dmax is greater than 75%. For the same molecule, in test [2], the DC50 is less than 10 nM and the “BRM HiBit Degradation Maximum (%)” value is recorded as “A (“A” indicates maximum degradation ≥75%)”.
For the molecule `Cc1ncsc1-c1ccc([C@H](C)NC(=O)[C@@H]2C[C@@H](O)CN2C(=O)[C@H](C(C)C)n2cnc(N3CC4(CN(c5ccc6cc(-c7ccccc7O)nnc6c5)C4)C3)n2)cc1` [Compound 267, (2S,4R)-4-hydroxy-1-[(2S)-2-(3-{6-[3-(2-hydroxyphenyl)cinnolin-7-yl]-2,6-diazaspiro[3.3]heptan-2-yl}-1,2,4-triazol-1-yl)-3-methylbutanoyl]-N-[(1S)-1-[4-(4-methyl-1,3-thiazol-5-yl)phenyl]ethyl]pyrrolidine-2-carboxamide], the Dmax in test [1] was less than 50%. Further, in test [2], the DC50 is greater than 100 nM and the “BRM HiBit Degradation Maximum (%)” value was “B (“B” indicates maximum degradation ≥50%)”.
As to `Cc1ncsc1-c1ccc([C@H](C)NC(=O)[C@@H]2C[C@@H](O)CN2C(=O)C(C(C)C)n2cc(N3C4CCC3CN(c3ccc5cc(-c6ccccc6O)nnc5c3)C4)nn2)cc1` (stereo partly drawn) [Compound 268, (2S,4R)-4-hydroxy-1-(2-(4-(3-(3-(2-hydroxyphenyl)cinnolin-7-yl)-3,8-diazabicyclo[3.2.1]octan-8-yl)-1H-1,2,3-triazol-1-yl)-3-methylbutanoyl)-N-((S)-1-(4-(4-methylthiazol-5-yl)phenyl)ethyl)pyrrolidine-2-carboxamide], the Dmax in test [1] is less than 50%. Further, in test [2], the DC50 was greater than 100 nM and the “BRM HiBit Degradation Maximum (%)” value is on record as “A (“A” indicates maximum degradation ≥75%)”.
Turning to `Cc1ncsc1-c1ccc([C@H](C)NC(=O)[C@@H]2C[C@@H](O)CN2C(=O)C(C(C)C)n2cc(N3CCC(C4CN(c5ccc6nnc(-c7ccccc7O)cc6c5)C4)C3)nn2)cc1` (stereo partly drawn) [Compound 269, (2S,4R)-4-hydroxy-1-(2-(4-(3-(1-(3-(2-hydroxyphenyl)cinnolin-6-yl)azetidin-3-yl)pyrrolidin-1-yl)-1H-1,2,3-triazol-1-yl)-3-methylbutanoyl)-N-((S)-1-(4-(4-methylthiazol-5-yl)phenyl)ethyl)pyrrolidine-2-carboxamide], in test [1], the DC50 is greater than 10 nM and the Dmax is greater than 75%. Moreover, in test [2], the DC50 is less than 10 nM and the “BRM HiBit Degradation Maximum (%)” value is listed as “A (“A” indicates maximum degradation ≥75%)”.
For the molecule `Cc1ncsc1-c1ccc([C@H](C)NC(=O)[C@@H]2C[C@@H](O)CN2C(=O)C(C(C)C)n2cc(N3CCCC(CN4CCN(c5ccc6nnc(-c7ccccc7O)cc6c5)CC4)C3)nn2)cc1` (stereo partly drawn) [Compound 270, (2S,4R)-4-hydroxy-1-(2-(4-(3-((4-(3-(2-hydroxyphenyl)cinnolin-6-yl)piperazin-1-yl)methyl)piperidin-1-yl)-1H-1,2,3-triazol-1-yl)-3-methylbutanoyl)-N-((S)-1-(4-(4-methylthiazol-5-yl)phenyl)ethyl)pyrrolidine-2-carboxamide], in test [1], the DC50 is greater than 10 nM and the Dmax was greater than 75%. Besides, in test [2], the DC50 was less than 10 nM and the “BRM HiBit Degradation Maximum (%)” value is on record as “A (“A” indicates maximum degradation ≥75%)”.
Take `Cc1ncsc1-c1ccc([C@H](C)NC(=O)[C@@H]2C[C@@H](O)CN2C(=O)[C@H](C(C)C)n2cnc(N3CC4(CN(c5ccc6cc(-c7ccccc7O)nnc6c5)C4)C3)c2)cc1` [Compound 271, (2S,4R)-4-hydroxy-1-((S)-2-(4-(6-(3-(2-hydroxyphenyl)cinnolin-7-yl)-2,6-diazaspiro[3.3]heptan-2-yl)-1H-imidazol-1-yl)-3-methylbutanoyl)-N-((S)-1-(4-(4-methylthiazol-5-yl)phenyl)ethyl)pyrrolidine-2-carboxamide]: in test [1], the Dmax was less than 50%. In test [2], the DC50 is greater than 10 nM and the “BRM HiBit Degradation Maximum (%)” value is listed as “A (“A” indicates maximum degradation ≥75%)”.
`Cc1ncsc1-c1ccc([C@H](C)NC(=O)[C@@H]2C[C@@H](O)CN2C(=O)[C@H](C(C)C)n2cnc(N3CC4(CN(c5ccc6nnc(-c7ccccc7O)cc6c5)C4)C3)c2)cc1` [Compound 272, (2S,4R)-4-hydroxy-1-((S)-2-(4-(6-(3-(2-hydroxyphenyl)cinnolin-6-yl)-2,6-diazaspiro[3.3]heptan-2-yl)-1H-imidazol-1-yl)-3-methylbutanoyl)-N-((S)-1-(4-(4-methylthiazol-5-yl)phenyl)ethyl)pyrrolidine-2-carboxamide]: in test [1], the Dmax is less than 50%. Further, in test [2], the DC50 is greater than 100 nM and the “BRM HiBit Degradation Maximum (%)” value was “A (“A” indicates maximum degradation ≥75%)”.
With `C#Cc1ccc([C@H](C)NC(=O)[C@@H]2C[C@@H](O)CN2C(=O)[C@@H](c2cc(N3CC4(CN(c5ccc6cc(-c7ccccc7O)nnc6c5)C4)C3)no2)C(C)C)c(OC)c1` [Compound 273, (2S,4R)-N-((S)-1-(4-ethynyl-2-methoxyphenyl)ethyl)-4-hydroxy-1-((R)-2-(3-(6-(3-(2-hydroxyphenyl)cinnolin-7-yl)-2,6-diazaspiro[3.3]heptan-2-yl)isoxazol-5-yl)-3-methylbutanoyl)pyrrolidine-2-carboxamide], the Dmax in test [1] is less than 50%. For the same molecule, in test [2], the DC50 is less than 10 nM and the “BRM HiBit Degradation Maximum (%)” value is recorded as “A (“A” indicates maximum degradation ≥75%)”.
For `C#Cc1ccc([C@H](C)NC(=O)[C@@H]2C[C@@H](O)CN2C(=O)[C@@H](c2cc(N3CC4(CN(c5ccc6cc(-c7ccccc7O)nnc6c5)C4)C3)no2)C(C)C)cc1` [Compound 274, (2S,4R)-N-((S)-1-(4-ethynylphenyl)ethyl)-4-hydroxy-1-((R)-2-(3-(6-(3-(2-hydroxyphenyl)cinnolin-7-yl)-2,6-diazaspiro[3.3]heptan-2-yl)isoxazol-5-yl)-3-methylbutanoyl)pyrrolidine-2-carboxamide], the Dmax in test [1] is less than 50%. In addition, in test [2], the DC50 is less than 10 nM and the “BRM HiBit Degradation Maximum (%)” value is reported as “A (“A” indicates maximum degradation ≥75%)”.
On to `Cc1ncsc1-c1ccc([C@H](C)NC(=O)[C@@H]2C[C@@H](O)CN2C(=O)C(C(C)C)n2cc(N3CCCC4(CCN(c5ccc6nnc(-c7ccccc7O)cc6c5)CC4)C3)nn2)cc1` (stereo partly drawn) [Compound 275], for which, in test [1], the DC50 is greater than 10 nM and the Dmax is greater than 75%. For the same molecule, in test [2], the DC50 is less than 10 nM and the “BRM HiBit Degradation Maximum (%)” value is “A (“A” indicates maximum degradation ≥75%)”.
On to `Cc1ncsc1-c1ccc([C@H](C)NC(=O)[C@@H]2C[C@@H](O)CN2C(=O)C(C(C)C)n2cc(N3CCC34CN(c3ccc5nnc(-c6ccccc6O)cc5c3)C4)nn2)cc1` (stereo partly drawn) [Compound 276], for which, in test [1], the DC50 is greater than 10 nM and the Dmax is greater than 75%. Also, the “BRM HiBit Degradation Maximum (%)” value in test [2] is listed as “C (“C” indicates maximum degradation <50%)”.
In the case of `Cc1ncsc1-c1ccc([C@H](C)NC(=O)[C@@H]2C[C@@H](O)CN2C(=O)C(C(C)C)n2cc(N3CCC4(CCN4c4ccc5nnc(-c6ccccc6O)cc5c4)C3)nn2)cc1` (stereo partly drawn) [Compound 277], the Dmax in test [1] was less than 50%. In test [2], the DC50 was less than 10 nM and the “BRM HiBit Degradation Maximum (%)” value is “A (“A” indicates maximum degradation ≥75%)”.
As to `Cc1ncsc1-c1ccc([C@H](C)NC(=O)[C@@H]2C[C@@H](O)CN2C(=O)C(C(C)C)n2cc(N3CCC4(CC3)CCN4c3ccc4nnc(-c5ccccc5O)cc4c3)nn2)cc1` (stereo partly drawn) [Compound 278], in test [1], the DC50 was greater than 10 nM and the Dmax is greater than 50%. In test [2], the DC50 is less than 10 nM and the “BRM HiBit Degradation Maximum (%)” value is “A (“A” indicates maximum degradation ≥75%)”.
In the same order, the values of `Cc1ncsc1-c1ccc([C@H](C)NC(=O)[C@@H]2C[C@@H](O)CN2C(=O)C(C(C)C)n2cc(N3CCC4(CCN(c5ccc6nnc(-c7ccccc7O)cc6c5)CC4)C3)nn2)cc1` (stereo partly drawn) [Compound 279] are greater than 10 nM, greater than 75%, less than 10 nM and “A (“A” indicates maximum degradation ≥75%)”.
In the same order, the values of `Cc1ncsc1-c1ccc([C@H](C)NC(=O)[C@@H]2C[C@@H](O)CN2C(=O)C(C(C)C)n2cc(N3CCN(CC4CCCN(c5ccc6nnc(-c7ccccc7O)cc6c5)C4)CC3)nn2)cc1` (stereo partly drawn) [Compound 280] are less than 10 nM, greater than 75%, less than 10 nM and “A (“A” indicates maximum degradation ≥75%)”.
In the same order, the values of `Cc1ncsc1-c1ccc([C@H](C)NC(=O)[C@@H]2C[C@@H](O)CN2C(=O)C(C(C)C)n2cc(N3CCN(CC4CCN(c5ccc6nnc(-c7ccccc7O)cc6c5)CC4)CC3)nn2)cc1` (stereo partly drawn) [Compound 281] are less than 10 nM, greater than 75%, less than 10 nM and “A (“A” indicates maximum degradation ≥75%)”.
In the case of `Cc1ncsc1-c1ccc([C@H](C)NC(=O)[C@@H]2C[C@@H](O)CN2C(=O)C(C(C)C)n2cc(N3CCN(CN4CCN(c5ccc6nnc(-c7ccccc7O)cc6c5)CC4)CC3)nn2)cc1` (stereo partly drawn) [Compound 282], in test [1], the DC50 was less than 10 nM and the Dmax was greater than 75%. For the same molecule, in test [2], the DC50 is less than 10 nM and the “BRM HiBit Degradation Maximum (%)” value is on record as “A (“A” indicates maximum degradation ≥75%)”.
